Source: ChEMBL document CHEMBL4251557 (Eur J Med Chem, 2017)

Target: Neuraminidase (Influenza A virus (A/Puerto Rico/8/1934(H1N1)), UniProt P03468, H274Y)
Set-up: species or system Influenza A virus (A/California/04/2009(H1N1))

SMILES: CCC(CC)O[C@@H]1C=C(C(=O)O)C[C@H](NC(C)=O)[C@H]1NC(C)=O
- IC50: 1380 nM
